ChEMBL document CHEMBL3588818 (Eur J Med Chem, 2015)

Legend:
[1] = Displacement of [3H]DTG from sigma2 receptor in Sprague-Dawley rat liver membranes incubated for 2 hrs in presence of dextrallorphan by liquid scintillation counting based competitive radioligand binding assay; conditions: read-out: Ki(app)
PC-12 [2] = test: Selectivity index, ratio of Ki for sigma2 receptor in Sprague-Dawley rat liver membranes to Ki for rat VAChT expressed in PC12 cell membranes; type: cell-based
PC-12 [3] = test: Selectivity index, ratio of Ki for sigma1 receptor in Sprague-Dawley rat cortical membranes to Ki for rat VAChT expressed in PC12 cell membranes; type: cell-based
[4] = molecular target: T1, Vesicular acetylcholine transporter (Rattus norvegicus, UniProt Q62666); test: Displacement of (-)-[3H]vesamicol from rat VAChT expressed in PC12 cell membranes incubated for 2 hrs by liquid scintillation counting based competitive radioligand binding assay; parameters: species or system PC-12; conditions: read-out: Ki(app)
T1 sequence (Q62666 whole entry): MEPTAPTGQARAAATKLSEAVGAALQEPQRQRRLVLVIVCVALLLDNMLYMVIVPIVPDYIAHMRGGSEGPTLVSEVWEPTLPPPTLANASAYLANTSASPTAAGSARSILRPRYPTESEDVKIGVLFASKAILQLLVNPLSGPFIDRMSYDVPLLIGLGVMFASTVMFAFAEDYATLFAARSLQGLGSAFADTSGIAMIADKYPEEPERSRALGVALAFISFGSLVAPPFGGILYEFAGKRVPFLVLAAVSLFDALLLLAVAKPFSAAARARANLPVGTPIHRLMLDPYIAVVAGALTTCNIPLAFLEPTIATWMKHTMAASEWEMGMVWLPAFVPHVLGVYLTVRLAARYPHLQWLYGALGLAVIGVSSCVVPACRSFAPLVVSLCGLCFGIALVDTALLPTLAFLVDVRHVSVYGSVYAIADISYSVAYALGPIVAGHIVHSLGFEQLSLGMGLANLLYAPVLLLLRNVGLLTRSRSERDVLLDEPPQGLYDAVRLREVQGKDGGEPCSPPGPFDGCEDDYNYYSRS

[5] = molecular target: Sigma non-opioid intracellular receptor 1 (Rattus norvegicus, UniProt Q9R0C9); test: Displacement of […] from sigma1 receptor in Sprague-Dawley rat cortical membranes incubated for 2 hrs by liquid scintillation counting based competitive radioligand binding assay; conditions: read-out: Ki(app)
Sequence of Sigma non-opioid intracellular receptor 1 (Q9R0C9 whole entry): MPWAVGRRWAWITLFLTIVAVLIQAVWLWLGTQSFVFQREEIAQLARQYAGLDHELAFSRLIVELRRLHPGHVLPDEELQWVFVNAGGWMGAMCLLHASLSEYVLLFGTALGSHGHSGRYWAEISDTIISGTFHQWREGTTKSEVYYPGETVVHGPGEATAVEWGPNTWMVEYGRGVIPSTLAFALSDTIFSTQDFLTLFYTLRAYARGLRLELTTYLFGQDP

SMILES	Ki [1] [nM]	Ratio Ki (PC-12 [2])	Ratio Ki (PC-12 [3])	Ki [4] [nM]	Ki [5] [nM]
O[C@@H]1C[C@@H](OCc2ccc(F)cc2)CC[C@H]1N1CCN(c2ccccc2)CC1 (racemic)	1040	0.2	< 0.1	6190	189
O[C@@H]1CC[C@@H](OCc2ccc(F)cc2)C[C@H]1N1CCC(N2CCCCC2)CC1 (racemic)	543	0.1	0.1	4790	553
O[C@@H]1C[C@@H](OCCCF)CC[C@H]1N1CCC(c2ccccc2)CC1 (racemic)	717	12	1.6	59.6	97.6
O[C@@H]1CC[C@@H](OCc2ccc(F)cc2)C[C@H]1N1CCC(Cc2ccccc2)CC1 (racemic)	61.8	0.6	0.2	110	25.2
O[C@@H]1CCCC[C@H]1N1CCC(Cc2ccccc2)CC1 (racemic)	108	0.2	< 0.1	647	20.1
O[C@@H]1C[C@@H](OCc2ccc(F)cc2)CC[C@H]1N1CCC(O)(c2ccccc2)CC1 (racemic)	254			> 10000	31
O=C(Nc1cccc2c1C[C@@H](N1CCC(c3ccccc3)CC1)[C@H](O)C2)c1ccc(F)cc1 (racemic)	3620	23.2	41.2	156	6430
CCN(CCCc1ccccc1)[C@@H]1CCCC[C@H]1O (racemic)	652			> 10000	115
O=C(c1ccc(F)cc1)C1CCN([C@@H]2C[C@H](OCc3ccc(F)cc3)CC[C@H]2O)CC1 (racemic)	640	0.6	< 0.1	1030	59.4
CCN(CCCc1ccccc1)[C@@H]1CC[C@H](OCc2ccc(F)cc2)C[C@H]1O (racemic)	280	0.1	< 0.1	1930	19.7
O[C@@H]1CCCC[C@H]1N1CCc2ccccc2C1 (racemic)	809				54.3
O[C@@H]1CCCC[C@H]1N1CCC(N2CCCCC2)CC1 (racemic)	4710			5110	> 1000
O[C@@H]1C[C@@H](OCc2ccc(F)cc2)CC[C@H]1N1CCC(N2CCCCC2)CC1 (racemic)	374			> 10000	300
O[C@@H]1Cc2ccccc2C[C@H]1N1CC=C(c2ccccc2)CC1 (racemic)	166				24
O[C@@H]1C[C@@H](OCc2ccc(F)cc2)CC[C@H]1N1CCC(c2ccncc2)CC1 (racemic)	164			> 10000	41.1
O=C(Nc1cccc2c1C[C@@H](O)[C@H](N1CCC(Cc3ccccc3)CC1)C2)c1ccc(F)cc1 (racemic)	2110			> 10000	296
O[C@@H]1Cc2cccc(OCCF)c2C[C@H]1N1CCC(c2ccccc2)CC1 (racemic)			10.7		
O[C@@H]1Cc2ccccc2C[C@H]1N1CCC(c2ccccc2)CC1 (racemic) [BENZOVESAMICOL]	96.4				26.1
O[C@@H]1C[C@@H](OCc2ccc(F)cc2)CC[C@H]1N1CCc2ccccc2C1 (racemic)	45.6			> 10000	23.1
O[C@@H]1CCCC[C@H]1N1CCC(c2ccccc2)CC1 (racemic) [VESAMICOL]	112				
CC(=O)C1(c2ccccc2)CCN([C@@H]2CC[C@H](OCc3ccc(F)cc3)C[C@H]2O)CC1 (racemic)	103			> 10000	120
O[C@@H]1CCCC[C@H]1N1CCC(c2ccncc2)CC1 (racemic)	3320			3380	> 1000
CCN(CCCc1ccccc1)[C@@H]1C[C@H](OCc2ccc(F)cc2)CC[C@H]1O (racemic)	109	< 0.1		1610	10.5
